From paper PMC5853558, “De novo identification of lipid II binding lipopeptides with antibacterial activity against vancomycin-resistant bacteria” (Chemical Science, 2017)
Converted amounts (≈) assume the structure as drawn. *1 amine or outer side, *2 acyl side, *3 side chain or, on linkers, in order; H or OH if unused. Where a SMILES comes first, the peptide text is derived from it. Bridges are numbered along the chain shown (N, C = ends). [ ]: non-standard residue; d: D form. The star is where a group is joined. TBMB = c1c(C[*:1])cc(C[*:3])cc1C[*:2]; NHDecyl = CCCCCCCCCCN*

What was measured:
Sheep blood = test: Hemolysis assay; type: cell-based; conditions: Supplemental table S9; 1 hour incubation at 37 °C, lipopeptides at 32 µg/mL
How it was run: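 Washed sheep erythrocytes in PBS were incubated with serial peptide dilutions, top concentration 64 µg/mL with 2% DMSO, for 1 h at 37 °C. Released hemoglobin in the supernatant was read at 414 nm and referenced to 0.1% Triton X-100 (100% lysis) and PBS/2% DMSO (0% lysis).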

E. faecium (E980) = test: microbe, parasite or virus in culture; type: cell-based, Enterococcus faecium
How it was run: (§1)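 Dilution series of peptide in TSB, up to 512 µg/ml final (lipopeptides up to 64 µg/ml), DMSO 2% final. Mid-log inoculum suspension at 1 x 10^6 CFU/ml, equal volume per well. Incubation at the strain's growth temperature with shaking.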

E. faecium (VRE2297) = test: microbe, parasite or virus in culture; type: cell-based, Enterococcus faecium
How it was run: as §1

E. faecium (VRE155) = test: microbe, parasite or virus in culture; type: cell-based, Enterococcus faecium
How it was run: as §1

E. faecium (VRE0321) = test: microbe, parasite or virus in culture; type: cell-based, Enterococcus faecium
How it was run: as §1

E. faecium (VRE7391) = test: microbe, parasite or virus in culture; type: cell-based, Enterococcus faecium
How it was run: as §1

E. faecium E980 = test: UDP-MurNAc-pentapeptide accumulation assay; type: cell-based, Enterococcus faecium; conditions: E. faecium E980, peptides at 10x MIC, 30 min, chloramphenicol 130 µg/ml pre-treatment, LCMS; triplicate measurements
Description: We next examined the effect of the optimized P8-D-(S6R, R15A)-C10 lipopeptide on cell wall biosynthesis in live bacteria. Specifically, we employed an assay where the accumulation of the soluble intracellular lipid II precursor UDP-MurNAc-pentapeptide is measured in response to antibiotic administration. Antibiotics known to interfere with cell wall biosynthesis by sequestration of lipid II (i.e. vancomycin) can lead to UDP-MurNAc-pentapeptide accumulation in the cytosol which can then be extracted and assessed by chromatographic means.[18],[33] […] The effect of the lipopeptides on bacterial cell morphology was further investigated using scanning electron microscopy. To this end, VRE 155 cells were imaged after exposure to either P8-D-(S6R, R15A)-C10 or nisin at 2× the MIC.
Section 4 Biological and biochemical experiments
4.1 Minimum inhibitory concentration assay
MIC values were determined by using the broth microdilution method. […]
determining the MICs of the lipidated peptides, the lipopeptides were first dissolved in DMSO and diluted with TSB so that the peptide concentration was 128 µg/ml and the DMSO concentration was 4%. After inoculation the highest peptide concentration evaluated was 64 µg/ml and the DMSO concentration was 2%. […]
Hemolysis was determined by measuring the absorption at 414 nm to measure the amount of free […]

S. epidermidis (1587) = test: microbe, parasite or virus in culture; type: cell-based
How it was run: as §1

S. pyogenes (5448) = test: microbe, parasite or virus in culture; type: cell-based
How it was run: as §1

B. subtilis (168) = test: microbe, parasite or virus in culture; type: cell-based
How it was run: as §1

[1] = Supplemental table S9, MIC values of Table 2 expressed in µM
[2] = Table 2, broth microdilution in TSB, 16 h, read visually, highest tested 64 µg/ml
[3] = Supplemental table S9, vancomycin-resistant isolate, MIC values of Table 2 expressed in µM
[4] = Table 2, vancomycin-resistant isolate from hospitalized patients, broth microdilution in TSB, 16 h, highest tested 64 µg/ml

SMILES	Hemolysis (Sheep blood)	MIC E. faecium (E980) (E. faecium (E980); [1])	MIC E. faecium (E980) (E. faecium (E980); [2])	MIC E. faecium (VRE2297) (E. faecium (VRE2297); [3])	MIC E. faecium (VRE2297) (E. faecium (VRE2297); [4])	MIC E. faecium (VRE155) (E. faecium (VRE155); [3])	MIC E. faecium (VRE155) (E. faecium (VRE155); [4])	MIC E. faecium (VRE0321) (E. faecium (VRE0321); [3])	MIC E. faecium (VRE0321) (E. faecium (VRE0321); [4])	MIC E. faecium (VRE7391) (E. faecium (VRE7391); [3])	MIC E. faecium (VRE7391) (E. faecium (VRE7391); [4])	Accumulation of UDP-MurNAc-pentapeptide (E. faecium E980)	MIC S. epidermidis (1587) (S. epidermidis (1587); [1])	MIC S. epidermidis (1587) (S. epidermidis (1587); [2])	MIC S. pyogenes (5448) (S. pyogenes (5448); [2])	MIC B. subtilis (168) (B. subtilis (168); [1])	MIC B. subtilis (168) (B. subtilis (168); [2])	MIC S. pyogenes (5448) (S. pyogenes (5448); [1])
CCCCCCCCCCNC(=O)CNC(=O)[C@H]1CSCc2cc3cc(c2)CSC[C@@H](NC(=O)[C@@H](CC(C)C)NC(=O)[C@@H](CC(C)C)NC(=O)[C@@H](CCCNC(=N)N)NC(=O)[C@@H](CCC(N)=O)NC(=O)[C@@H](CC(C)C)NC(=O)[C@@H](CC(C)C)NC(=O)[C@H](NC(=O)[C@@H](C)N)CSC3)C(=O)N2CCC[C@@H]2C(=O)N[C@H](Cc2ccc(O)cc2)C(=O)N[C@H](CO)C(=O)N[C@H]([C@H](C)O)C(=O)N[C@H](Cc2c[nH]cn2)C(=O)N[C@H](C)C(=O)N1 [P8-D-(S6R, R15A)-C10] (H-[dA][dC][dL][dL][dQ][dR][dL][dL][dC][dP][dY][dS][dT][dH][dA][dC]G-NHDecyl; linker 2-9-16 via TBMB; N-terminus assumed)	0%	30.5 µM (≈ 64.1 µg/mL)	32 μg mL^–1	15.2 µM (≈ 32 µg/mL)	16 μg mL^–1	7.6 µM (≈ 16 µg/mL)	8 μg mL^–1	7.6 µM (≈ 16 µg/mL)	8 μg mL^–1	15.2 µM (≈ 32 µg/mL)	16 μg mL^–1	significant accumulation	60.9 µM (≈ 128 µg/mL)	64 μg mL^–1	8–16 μg mL^–1	7.6 µM (≈ 16 µg/mL)	8 μg mL^–1	
CCCCCCCCCCNC(=O)CNC(=O)[C@@H]1CSCc2cc3cc(c2)CSC[C@H](NC(=O)[C@H](CC(C)C)NC(=O)[C@H](CC(C)C)NC(=O)[C@H](CCCNC(=N)N)NC(=O)[C@H](CCC(N)=O)NC(=O)[C@H](CC(C)C)NC(=O)[C@H](CC(C)C)NC(=O)[C@@H](NC(=O)[C@H](C)N)CSC3)C(=O)N2CCC[C@H]2C(=O)N[C@@H](Cc2ccc(O)cc2)C(=O)N[C@@H](CO)C(=O)N[C@@H]([C@@H](C)O)C(=O)N[C@@H](Cc2c[nH]cn2)C(=O)N[C@@H](C)C(=O)N1 [P8-L-(S6R, R15A)-C10] (H-ACLLQRLLCPYSTHACG-NHDecyl; linker 2-9-16 via TBMB; N-terminus assumed)	0%	30.5 µM (≈ 64.1 µg/mL)	32 μg mL^–1	15.2 µM (≈ 32 µg/mL)	16 μg mL^–1	7.6 µM (≈ 16 µg/mL)	8 μg mL^–1	7.6 µM (≈ 16 µg/mL)	8 μg mL^–1	15.2 µM (≈ 32 µg/mL)	16 μg mL^–1	significant accumulation	30.5 µM (≈ 64.1 µg/mL)	32 μg mL^–1	8 μg mL^–1	7.6 µM (≈ 16 µg/mL)	8 μg mL^–1	7.6 µM (≈ 16 µg/mL)
